Data taken from publication PMC6893741, “Docosahexaenoic Acid Inhibits PTP1B Phosphatase and the Viability of MCF-7 Breast Cancer Cells” (Nutrients, 2019).

Molecular target: T1, Protein tyrosine phosphatase 1B (PTP1B) (Homo sapiens, UniProt P18031)
T1 construct: gene PTPN1; recombinant PTP1B
T1 sequence (P18031 1-435): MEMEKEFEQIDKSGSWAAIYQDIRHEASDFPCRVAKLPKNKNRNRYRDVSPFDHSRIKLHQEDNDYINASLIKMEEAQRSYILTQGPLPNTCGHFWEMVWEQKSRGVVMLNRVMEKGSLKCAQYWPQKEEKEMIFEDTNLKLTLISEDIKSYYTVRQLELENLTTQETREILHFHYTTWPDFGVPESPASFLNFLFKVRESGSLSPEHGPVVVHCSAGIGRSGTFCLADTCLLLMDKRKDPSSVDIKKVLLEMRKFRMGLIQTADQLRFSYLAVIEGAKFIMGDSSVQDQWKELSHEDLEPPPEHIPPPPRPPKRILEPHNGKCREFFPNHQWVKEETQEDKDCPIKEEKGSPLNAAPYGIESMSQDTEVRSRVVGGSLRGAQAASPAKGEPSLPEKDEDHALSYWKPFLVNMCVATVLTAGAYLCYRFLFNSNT
Assay: recombinant PTP1B activity assay with pNPP, absorbance at […] nm, […] min incubation
Type: biochemical

IC50: 174 ± 25.5 µM
SMILES: CC/C=C\C/C=C\C/C=C\C/C=C\C/C=C\C/C=C\CCC(=O)O [DHA, docosahexaenoic acid]
